In brackets after ≈: the same amount, converted by molar mass. Activity calls are given as the source filed them. No cut-off for these calls is given here.
How the values were obtained:
[1] = Acute toxicity in rat assessed as relative liver weight at 2000 mg/kg, po administered for 7 days followed by readministration after 7 days and measured at 14 days (reference value: 4.36 +/- 0.23 %); assay type: organism-based; details: in vivo, 336 h, time 14 day
[2] = Acute toxicity in rat assessed as relative spleen weight at 2000 mg/kg, po administered for 7 days followed by readministration after 7 days and measured at 14 days (reference value: 0.27 +/- 0.02 %); assay type: organism-based; details: in vivo, 336 h, time 14 day
[3] = Acute toxicity in rat assessed as absolute lung weight at 2000 mg/kg, po measured for 7 days (reference value: 1.12 +/- 0.07g); assay type: organism-based; details: in vivo, 168 h, time 7 day
[4] = Acute toxicity in rat assessed as pathological changes in spleen at 2000 mg/kg, po measured for 14 days; assay type: organism-based; details: in vivo, 336 h, time 14 day
[5] = Acute toxicity in rat assessed as absolute lung weight at 2000 mg/kg, po administered for 7 days followed by readministration after 7 days and measured at 14 days (reference value: 1.12 +/- 0.07 g); assay type: organism-based; details: in vivo, 336 h, time 14 day
Staphylococcus aureus [6] = assay: Antibacterial activity against methicillin resistant Staphylococcus aureus; assay type: functional
[7] = Acute toxicity in rat assessed as reduction in food intake at 2000 mg/kg, po measured for 14 days; assay type: organism-based; details: in vivo, 336 h, time 14 day
[8] = Acute toxicity in rat assessed as reduction in water consumption at 2000 mg/kg, po measured at 24 hrs; assay type: organism-based; details: in vivo
Staphylococcus aureus [9] = assay: Bactericidal activity against methicillin-resistant Staphylococcus aureus ATCC 43300 assessed as log reduction in bacterial count count at 6 times MIC incubated at 24 hrs by time-kill assay; assay type: functional
[10] = Acute toxicity in rat assessed as pathological changes in liver at 2000 mg/kg, po measured for 14 days; assay type: organism-based; details: in vivo, 336 h, time 14 day
Staphylococcus aureus [11] = assay: Drug resistance, ratio of MIC for methicillin-resistant Staphylococcus aureus ATCC 43300 after 21 passages to MIC for methicillin-resistant Staphylococcus aureus ATCC 43300 during first exposure; assay type: functional
[12] = Acute toxicity in rat assessed as swelling in uterus at 2000 mg/kg, po measured for 14 days by H and E staining based analysis; assay type: organism-based; details: in vivo, 336 h, time 14 day
[13] = Acute toxicity in rat assessed as absolute spleen weight at 2000 mg/kg, po administered for 7 days followed by readministration after 7 days and measured at 14 days (reference value: 0.53 +/- 0.04 g); assay type: organism-based; details: in vivo, 336 h, time 14 day
[14] = Acute toxicity in rat assessed as pathological changes in lung at 2000 mg/kg, po measured for 14 days; assay type: organism-based; details: in vivo, 336 h, time 14 day
Staphylococcus aureus [15] = assay: Bactericidal activity against methicillin-resistant Staphylococcus aureus ATCC 43300 at 1 times MIC incubated upto 24 hrs by time-kill assay; assay type: functional, organism-based
Staphylococcus aureus [16] = assay: Antibacterial activity against methicillin-resistant Staphylococcus aureus ATCC 43300 assessed as inhibition of visible bacterial growth incubated for 24 hrs by CLSI based broth microdilution method; assay type: functional
[17] = Cytotoxicity against human HEK293T cells assessed as cell viability incubated for 24 hrs by CCK-8 assay; assay type: toxicity, cell-based, HEK-293T
[18] = Acute toxicity in rat assessed as absolute liver weight at 2000 mg/kg, po measured for 7 days (reference value: 8.43 +/- 0.43 g); assay type: organism-based; details: in vivo, 168 h, time 7 day
[19] = Acute toxicity in rat assessed as necrosis of epithelial cells at 2000 mg/kg, po measured for 14 days by H and E staining based analysis; assay type: organism-based; details: in vivo, 336 h, time 14 day
[20] = Acute toxicity in po dosed rat assessed as lethal dose measured for 14 days […]; assay type: organism-based; details: in vivo, time 14 day
Staphylococcus aureus [21] = assay: Antibacterial activity against Staphylococcus aureus ATCC 25923 assessed as inhibition of visible bacterial growth incubated for 24 hrs by CLSI based broth microdilution method; assay type: functional
Staphylococcus aureus [22] = assay: (§1) Antibacterial efficacy against methicillin-resistant Staphylococcus aureus ATCC 43300 infected in cyclophosphamide-induced neutropenic systemic infection Kunming mouse model assessed as reduction in bacterial load in kidney at 20 mg/kg, iv pretreated with cyclophosphamide for 1 hr followed by compound addition and measured after 5 days; assay type: functional, organism-based; details: time 5.0 day
Staphylococcus aureus [23] = assay: as §1, with “lung” for “kidney”; assay type: functional; details: time 5 day
[24] = Acute toxicity in rat assessed as reduction in water consumption at 2000 mg/kg, po measured for 14 days; assay type: organism-based; details: in vivo, 336 h, time 14 day
[25] = Acute toxicity in rat assessed as pathological changes in heart at 2000 mg/kg, po measured for 14 days; assay type: organism-based; details: in vivo, 336 h, time 14 day
[26] = Acute toxicity in rat assessed as absolute spleen weight at 2000 mg/kg, po measured for 7 days (reference value: 0.53 +/- 0.04g); assay type: organism-based; details: in vivo, 168 h, time 7 day
[27] = Acute toxicity in rat assessed as relative heart weight at 2000 mg/kg, po measured for 7 days (reference value: 0.40 +/- 0.06%); assay type: organism-based; details: in vivo, 168 h, time 7 day
[28] = Acute toxicity in rat assessed as decrease in locomotor activity at 2000 mg/kg, po measured for 14 days; assay type: organism-based; details: in vivo, 336 h, time 14 day
Staphylococcus aureus [29] = assay: Bactericidal activity against methicillin-resistant Staphylococcus aureus ATCC 43300 at 1 to 6 times MIC incubated upto 24 hrs by time-kill assay; assay type: functional, organism-based
[30] = Acute toxicity in rat assessed as reduction in food intake at 2000 mg/kg, po measured at 24 hrs; assay type: organism-based; details: in vivo

In the case of `C=C[C@]1(C)C[C@@H](OC(=O)CSc2nc(OC(=O)c3ccc(C(C)(C)C)cc3)cs2)[C@]2(C)[C@H](C)CC[C@]3(CCC(=O)[C@H]32)[C@@H](C)[C@@H]1O`, the Activity [1] is reported as 3.97%, the Activity [2] is reported as 0.25% and the Activity [3] is reported as 1.13 g. For the same compound, the Activity [4] was “Non-toxic”, the Activity [5] was 1.28 g and the MIC (Staphylococcus aureus [6]) was 0.5 µg/mL (≈ 0.765 µM). The Activity [7] was “Toxic”, the Activity [8] was “Non-toxic” and the “log(activity)” value (Staphylococcus aureus [9]) was 3.08. For the same compound, the Activity [10] was “Non-toxic”, the Ratio (Staphylococcus aureus [11]) was 16 and the Activity [12] was “Non-toxic”. For the same compound, the Activity [13] was 0.53 g, the Activity [14] was “Non-toxic” and the Activity (Staphylococcus aureus [15]) was “Active”. For the same compound, the MIC (Staphylococcus aureus [16]) was 0.25 µg/mL (≈ 0.382 µM), the IC50 at 24 h [17] was > 200 µM and the Activity [18] was 8.5 g. The Activity [19] was “Non-toxic”, the LD50 at 336 h [20] was 2000 mg/kg and the MIC (Staphylococcus aureus [21]) was 0.25 µg/mL (≈ 0.382 µM). The Activity (Staphylococcus aureus [22]) was “inactive”, the Activity (Staphylococcus aureus [23]) was 0.9 log10CFU and the Activity [24] was “Toxic”. For the same compound, the Activity [25] was “Non-toxic”, the Activity [26] was 0.53 g and the Activity [27] was 0.39%. The Activity [28] was “Non-toxic”, the Activity (Staphylococcus aureus [29]) was “Dose-dependent-effect” and the Activity [30] was “Non-toxic”.

From ChEMBL document CHEMBL6103592, “Discovery of novel thiazole-pleuromutilin derivatives with potent antibacterial activity” (Eur J Med Chem, 2025)
